{"source": "patent US11628172B2", "about": "“Methods of treating chronic lymphocytic leukemia using 2-(2,6-dioxopiperidin-3-yl)-4-((2-fluoro-4-((3-morpholinoazetidin-1-yl)methyl)benzyl)amino)isoindoline-1,3-dione” (Celgene Corporation, priority 2019, dated 2023)", "tested_on": "primary CLL cells from patient-derived blood (CD5+CD19+ tumor cells)", "experiment": "Compound 1 in combination with obinutuzumab in B-cell CLL patient cells (ex vivo co-culture, flow cytometry, Caspase3)", "type": "cell-based, human", "conditions": "144 h", "method": "Obinutuzumab (GA101) is a humanized, glycoengineered type 2 antibody targeted against CD20. […] The effect of treatment with Compound 1 in combination with obinutuzumab on the proliferation and survival of CLL B cells was assessed utilizing an ex vivo model where primary CLL cells from patient-derived blood were stimulated to proliferate with 10% fetal bovine serum (FBS), 5 ng/mL recombinant human interleukine-4 (rh IL-4), 10 ng/mL recombinant human interleukine-10 (rh IL-10) and co-cultured with fibroblast expressing surface CD154 (CD40L) in a 96 well plate format.\nPeripheral blood mononuclear cells (PBMCs) from CLL patients (Table 7) containing 52%-86% of CD5^+CD19^+ tumor cells were cultured at a density of 0.06-0.1×10^6 cells/well on a monolayer of CD154-expressing fibroblasts at a density of 0.09×10^6 cells/well in 96-well plates in RPMI 1640 medium supplemented with 10% FBS, 5 ng/mL rh IL-4 and 10 ng/mL rh IL-10. The cells were treated with vehicle control (0.1% DMSO) or increasing concentrations of Compound 1 ranging from 0.0001 to 1 μM and GA101 at concentrations ranging from 8 ng/mL to 5 ug/mL across all the different concentrations of Compound 1. After 144 h of treatment with both the agents, flow cytometric analysis was used to determine the number of tumor cells that were viable or apoptotic.\nThe tumor cell count was assessed by staining the patient PBMCs in each condition with tumor cell surface markers CD5 & CD19 along with Live/Dead fixable dye to exclude the dead cells and followed by intracellular staining for Caspase3 antibody to identify the apoptotic cells and was measured by flow cytometry (Attune NxT, Thermo Fisher). The live tumor cell count for each condition was calculated by normalizing to the precision count beads added to each sample.\nThe live tumor cell count was then normalized to the DMSO control (considered as 100% viable) to calculate the percentage of viable cells remaining after treatment. The normalized percentage of tumor cells was then represented as a heat map using Graph Pad Prism 8.0.0 to indicate the degree of tumor toxicity for each of the combinations (FIG. 1). Based on the data shown in FIG. 1, synergy/additivity calculations were performed using the HSA and Bliss Independence Model.\nFor apoptosis analysis, the percentage of apoptosis combining both “early” (Caspase 3 positive and Live-Dead fixable dye negative) and “late” apoptosis (Caspase 3 and Live-Dead fixable dye positive) cell gates subtracting the baseline DMSO value was graphed using GraphPad Prism 8.0.0.0. The Ymax (maximal percentage of apoptosis achieved) values from apoptosis curves were calculated by performing a nonlinear regression curve fitting using log(agonist) vs. normalized response—Variable slope analysis and identifying the maximum value on GraphPad Prism 8.0.0 (Table 8)."}
{"substance": "Obinutuzumab: humanized, glycoengineered type 2 antibody targeted against CD20", "values": [{"measurement": "induction of apoptosis (in words)", "setting": "CLL patient cells Pt 11-14, Table 8", "value": "induced apoptosis alone"}, {"measurement": "Ymax of Pt 11 (%)", "setting": "Pt 11, single agent (Cpd1 DRC with DMSO, or obinutuzumab alone), apoptosis (Caspase 3), DMSO baseline subtracted", "value": 27.98, "unit": "%"}, {"measurement": "Ymax of Pt 12 (%)", "setting": "Pt 12, single agent (Cpd1 DRC with DMSO, or obinutuzumab alone), apoptosis (Caspase 3), DMSO baseline subtracted", "value": 24.91, "unit": "%"}, {"measurement": "Ymax of Pt 13 (%)", "setting": "Pt 13, single agent (Cpd1 DRC with DMSO, or obinutuzumab alone), apoptosis (Caspase 3), DMSO baseline subtracted", "value": 35.87, "unit": "%"}, {"measurement": "Ymax of Pt 14 (%)", "setting": "Pt 14, single agent (Cpd1 DRC with DMSO, or obinutuzumab alone), apoptosis (Caspase 3), DMSO baseline subtracted", "value": 25.82, "unit": "%"}]}
